From patent publication US7579469B2, “Glucocorticoid mimetics, methods of making them, pharmaceutical compositions, and uses thereof” (Boehringer Ingelheim Pharmaceuticals, Inc., priority 2003, dated 2009)

Each compound was assayed against T1, human glucocorticoid receptor (GR) complex (Homo sapiens, UniProt P04150) (assay: Glucocorticoid receptor competitive binding assay (fluorescence polarization)). Details: competition with TAMRA-labeled dexamethasone.
T1 construct: made in house; host or cells: insect expression system (baculovirus lysate)
T1 sequence (P04150 1-777): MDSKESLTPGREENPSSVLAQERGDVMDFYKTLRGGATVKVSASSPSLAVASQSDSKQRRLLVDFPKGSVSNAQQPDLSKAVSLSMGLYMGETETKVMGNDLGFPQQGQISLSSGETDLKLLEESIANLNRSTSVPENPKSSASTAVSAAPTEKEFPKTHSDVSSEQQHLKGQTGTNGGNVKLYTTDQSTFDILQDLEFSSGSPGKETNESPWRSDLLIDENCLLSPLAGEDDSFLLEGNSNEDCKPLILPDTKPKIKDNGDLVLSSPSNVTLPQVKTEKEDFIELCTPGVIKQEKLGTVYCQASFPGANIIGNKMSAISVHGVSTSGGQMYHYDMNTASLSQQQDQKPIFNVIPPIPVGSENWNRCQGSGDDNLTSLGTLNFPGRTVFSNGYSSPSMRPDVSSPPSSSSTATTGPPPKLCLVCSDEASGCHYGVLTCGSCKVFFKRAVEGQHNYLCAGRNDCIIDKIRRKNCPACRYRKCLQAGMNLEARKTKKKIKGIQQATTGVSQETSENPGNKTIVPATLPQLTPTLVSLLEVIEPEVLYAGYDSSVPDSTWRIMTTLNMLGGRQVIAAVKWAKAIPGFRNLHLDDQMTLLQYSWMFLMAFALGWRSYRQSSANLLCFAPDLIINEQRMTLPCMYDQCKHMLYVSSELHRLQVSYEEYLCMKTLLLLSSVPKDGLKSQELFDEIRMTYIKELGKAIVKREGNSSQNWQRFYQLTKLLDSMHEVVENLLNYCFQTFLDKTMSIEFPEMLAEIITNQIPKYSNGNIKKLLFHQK
Procedure: Compounds of the invention were evaluated for binding to the steroid receptor by a fluorescence polarization competitive binding assay.
A. Glucocorticoid Receptor Competitive Binding Assay
Step 1. Characterization of the Fluorescent Probe
The wavelengths for maximum excitation and emission of the fluorescent probe should first be measured. An example of such a probe is rhodamine (TAMRA)-labeled dexamethasone.
The affinity of the probe for the steroid receptor was then determined in a titration experiment. The fluorescence polarization value of the probe in assay buffer was measured on an SLM-8100 fluorometer using the excitation and emission maximum values described above. Aliquots of expression vector lysate were added and fluorescence polarization was measured after each addition until no further change in polarization value was observed. Non-linear least squares regression analysis was used to calculate the dissociation constant of the probe from the polarization values obtained for lysate binding to the probe.
Step 2. Screening for Inhibitors of Probe Binding
This assay uses fluorescence polarization (FP) to quantitate the ability of test compounds to compete with tetramethyl rhodamine (TAMRA)-labeled dexamethasone for binding to a human glucocorticoid receptor (GR) complex prepared from an insect expression system. The assay buffer was: 10 mM TES, 50 mM KCl, 20 mM Na2MoO4.2H20, 1.5 mM EDTA, 0.04% w/v CHAPS, 10% v/v glycerol, 1 mM dithiothreitol, pH 7.4. Test compounds were dissolved to 1 mM in neat DMSO and then further diluted to 10× assay concentration in assay buffer supplemented with 10% v/v DMSO. Test compounds were serially diluted at 10× assay concentrations in 10% DMSO-containing buffer in 96-well polypropylene plates. Binding reaction mixtures were prepared in 96-well black Dynex microtiter plates by sequential addition of the following assay components to each well: 15 μL of 10× test compound solution, 85 μL of GR-containing baculovirus lysate diluted 1:170 in assay buffer, and 50 μL of 15 nM TAMRA-labeled dexamethasone. Positive controls were reaction mixtures containing no test compound; negative controls (blanks) were reaction mixtures containing 0.7 μM to 2 μM dexamethasone. […] IC50 values were determined by iterative non-linear curve fitting of the FP signal data to a 4-parameter logistic equation.
`CC(C)(CC(O)(Cn1ccc(=O)c2ccccc21)C(F)(F)F)c1cc(F)ccc1OC(F)F` (stereo not drawn) was tested, and the “activity in the GR binding assay” value was “potent activity”. In the case of `COc1ccc(F)cc1C(C)(C)CC(O)(Cn1ccc(=O)c2ccccc21)C1CC1` (stereo not drawn), the “activity in the GR binding assay” value is reported as “potent activity”. `COc1ccc(F)cc1C(C)(C)CC(O)(Cn1ccc(=O)c2ccccc21)C(F)F` (stereo not drawn) was tested, and the “activity in the GR binding assay” value was “potent activity”. With `CC(C)(CC(O)(Cn1ccc(=O)c2ccccc21)C(F)(F)F)c1cc(-c2cncnc2)ccc1O` (stereo not drawn) the “activity in the GR binding assay” value was “potent activity”. In the case of `COc1c(C)cc(C)cc1C(C)(C)CC(O)(Cn1ccc(=O)c2ccccc21)C(F)(F)F` (stereo not drawn), the “activity in the GR binding assay” value is reported as “potent activity”. For `COc1ccc(-c2cncnc2)cc1C(C)(C)CC(O)(Cn1ccc(=O)c2ccccc21)C(F)(F)F` (stereo not drawn), the “activity in the GR binding assay” value was “potent activity”. In the case of `COc1ccc(-c2cccnc2)cc1C(C)(C)CC(O)(Cn1ccc(=O)c2ccccc21)C(F)(F)F` (stereo not drawn), the “activity in the GR binding assay” value is reported as “potent activity”. `COc1ccc(-c2ccsc2)cc1C(C)(C)CC(O)(Cn1ccc(=O)c2ccccc21)C(F)(F)F` (stereo not drawn) was tested, and the “activity in the GR binding assay” value was “potent activity”. With `CC(C)(CC(O)(Cn1ccc(=O)c2ccccc21)C(F)(F)F)c1cccc(CO)c1` (stereo not drawn) the “activity in the GR binding assay” value was “potent activity”. With `CC(C)Oc1cccc(C(C)(C)CC(O)(Cn2ccc(=O)c3ccccc32)C(F)(F)F)c1` (stereo not drawn) the “activity in the GR binding assay” value was “potent activity”. `CC(C)(CC(O)(Cn1ccc(=O)c2ccccc21)C(F)(F)F)c1cccc(CN2CCOCC2)c1` (stereo not drawn) was tested, and the “activity in the GR binding assay” value was “potent activity”. In the case of `CC(C)(CC(O)(Cn1ccc(=O)c2ccccc21)C(F)(F)F)c1cccc(-c2cccnc2)c1` (stereo not drawn), the “activity in the GR binding assay” value is reported as “potent activity”. With `CC(C)(CC(O)(Cn1ccc(=O)c2ccccc21)C(F)(F)F)c1cccc2c1OCO2` (stereo not drawn) the “activity in the GR binding assay” value was “potent activity”. With `CC(C)(CC(O)(Cn1ccc(=O)c2ccccc21)C(F)(F)F)c1cc(F)ccc1OCc1ccccc1` (stereo not drawn) the “activity in the GR binding assay” value was “potent activity”. For `CC(C)(CC(O)(Cn1ccc(=O)c2ncccc21)C(F)(F)F)c1cccc2c1OCC2` (stereo not drawn), the “activity in the GR binding assay” value was “potent activity”. With `Cc1ccc(C(C)(C)CC(O)(Cn2ccc(=O)c3ccccc32)C(F)(F)F)c(C)c1` (stereo not drawn) the “activity in the GR binding assay” value was “potent activity”. For `Cc1ccc(C)c(C(C)(C)CC(O)(Cn2ccc(=O)c3ccccc32)C(F)(F)F)c1` (stereo not drawn), the “activity in the GR binding assay” value was “potent activity”. In the case of `CC(C)(CC(O)(Cn1ccc(=O)c2ccccc21)C(F)(F)F)c1cccc(C(=O)C2CC2)c1` (stereo not drawn), the “activity in the GR binding assay” value is reported as “potent activity”. `CCOc1cccc(C(C)(C)CC(O)(Cn2ccc(=O)c3ccccc32)C(F)(F)F)c1` (stereo not drawn) was tested, and the “activity in the GR binding assay” value was “potent activity”. With `CC(C)(CC(O)(Cn1ccc(=O)c2ccccc21)C(F)(F)F)c1ccc(F)c(C2OCCCO2)c1` (stereo not drawn) the “activity in the GR binding assay” value was “potent activity”. With `Cc1ccc(C(C)(C)CC(O)(Cn2ccc(=O)c3ccccc32)C(F)(F)F)cc1C` (stereo not drawn) the “activity in the GR binding assay” value was “potent activity”. For `CC(C)(CC(O)(Cn1ccc(=O)c2ccccc21)C(F)(F)F)c1cc(F)cc(F)c1` (stereo not drawn), the “activity in the GR binding assay” value was “potent activity”. For `Cc1cc(C)cc(C(C)(C)CC(O)(Cn2ccc(=O)c3ccccc32)C(F)(F)F)c1` (stereo not drawn), the “activity in the GR binding assay” value was “potent activity”. `COc1cc(F)ccc1C(C)(C)CC(O)(Cn1ccc(=O)c2ccccc21)C(F)(F)F` (stereo not drawn) was tested, and the “activity in the GR binding assay” value was “potent activity”. `Cc1cc(F)ccc1C(C)(C)CC(O)(Cn1ccc(=O)c2ccccc21)C(F)(F)F` (stereo not drawn) was tested, and the “activity in the GR binding assay” value was “potent activity”. In the case of `CC(=O)c1ccc(O)c(C(C)(C)CC(O)(Cn2ccc(=O)c3ccccc32)C(F)(F)F)c1` (stereo not drawn), the “activity in the GR binding assay” value is reported as “potent activity”. For `CC(C)(CC(O)(Cn1ccc(=O)c2ccccc21)C(F)(F)F)c1cc(F)cc2c1OCC2` (stereo not drawn), the “activity in the GR binding assay” value was “potent activity”. In the case of `CC(C)(CC(O)(Cn1cnc(=O)c2ccccc21)C(F)(F)F)c1cc(F)ccc1O` (stereo not drawn), the “activity in the GR binding assay” value is reported as “potent activity”. In the case of `CC(C)(CC(O)(Cn1ccc(=O)c2ccc(O)cc21)C(F)(F)F)c1cc(F)ccc1O` (stereo not drawn), the “activity in the GR binding assay” value is reported as “potent activity”. `Cc1cn(CC(O)(CC(C)(C)c2cc(F)ccc2O)C(F)(F)F)c2ccccc2c1=O` (stereo not drawn) was tested, and the “activity in the GR binding assay” value was “potent activity”. `CC(C)Oc1ccc(F)cc1C(C)(C)CC(O)(Cn1ccc(=O)c2ccccc21)C(F)(F)F` (stereo not drawn) was tested, and the “activity in the GR binding assay” value was “potent activity”. `COc1ccc(F)cc1C(C)(C)CC(O)(Cn1ccc(=O)c2cc(C)ccc21)C(F)(F)F` (stereo not drawn) was tested, and the “activity in the GR binding assay” value was “potent activity”. With `COc1ccc(F)cc1C(C)(C)CC(O)(Cn1cc(C)c(=O)c2ccccc21)C(F)(F)F` (stereo not drawn) the “activity in the GR binding assay” value was “potent activity”. With `Cc1ccc(F)cc1C(C)(C)CC(O)(Cn1ccc(=O)c2ccccc21)C(F)(F)F` (stereo not drawn) the “activity in the GR binding assay” value was “potent activity”. For `COC(=O)Oc1ccc(F)cc1C(C)(C)CC(O)(Cn1ccc(=O)c2ccccc21)C(F)(F)F` (stereo not drawn), the “activity in the GR binding assay” value was “potent activity”. In the case of `COc1ccc(F)cc1C(C)(C)CC(O)(CN1CC[S+]([O-])c2ccccc21)C(F)(F)F` (stereo not drawn) [1,1,1-Trifluoro-4-(5-fluoro-2-methoxyphenyl)-4-methyl-2-(1-oxo-2,3-dihydro-1H-1λ^4-benzo[1,4]thiazin-4-ylmethyl)pentan-2-ol], the “activity in the GR binding assay” value is reported as “potent activity”. `COc1ccc(F)cc1C(C)(C)CC(O)(CN1CCN(C)c2ccccc21)C(F)(F)F` (stereo not drawn) [1,1,1-Trifluoro-4-(5-fluoro-2-methoxyphenyl)-4-methyl-2-(4-methyl-3,4-dihydro-2H-quinoxalin-1-ylmethyl)pentan-2-ol] was tested, and the “activity in the GR binding assay” value was “potent activity”. In the case of `CCC(C)(CC(O)(Cn1ccc(=O)c2ccccc21)C(F)(F)F)c1ccccc1` (stereo not drawn) [1-(2-Hydroxy-4-methyl-4-phenyl-2-trifluoromethylhexyl)-1H-quinolin-4-one], the “activity in the GR binding assay” value is reported as “potent activity”. For `CC(=NO)c1cccc(C(C)(C)CC(O)(Cn2ccc(=O)c3ccccc32)C(F)(F)F)c1` (stereo not drawn) [1-(2-Hydroxy-4-{3-[1-(hydroxyimino)ethyl]phenyl}4-methyl-2-trifluoromethylpentyl)-1H-quinolin-4-one], the “activity in the GR binding assay” value was “potent activity”. In the case of `CON=C(C)c1cccc(C(C)(C)CC(O)(Cn2ccc(=O)c3ccccc32)C(F)(F)F)c1` (stereo not drawn) [1-(2-Hydroxy-4-{3-[1-(methoxyimino)ethyl]phenyl}4-methyl-2-trifluoromethylpentyl)-1H-quinolin-4-one], the “activity in the GR binding assay” value is reported as “potent activity”. For `CC(C)(CC(O)(Cn1ccc(=O)c2ccccc21)C(F)(F)F)c1cccc(-c2ccccc2)c1` (stereo not drawn) [1-(4-Biphenyl-3-yl-2-hydroxy-4-methyl-2-trifluoromethylpentyl)-H-quinolin-4-one], the “activity in the GR binding assay” value was “potent activity”. `C/C(=N/OCc1ccccc1)c1cccc(C(C)(C)CC(O)(Cn2ccc(=O)c3ccccc32)C(F)(F)F)c1` (stereo not drawn) [1-(4-{3-[1-(Benzyloxyimino)ethyl]phenyl}-2-hydroxy-4-methyl-2-trifluoromethylpentyl)-1H-quinolin-4-one] was tested, and the “activity in the GR binding assay” value was “potent activity”. In the case of `Cc1cc(C)c(O)c(C(C)(C)CC(O)(Cn2ccc(=O)c3ccccc32)C(F)(F)F)c1` (stereo not drawn) [1-[2-Hydroxy-4-(2-hydroxy-3,5-dimethylphenyl)-4-methyl-2-trifluoromethylpentyl]-1H-quinolin-4-one], the “activity in the GR binding assay” value is reported as “potent activity”. `Cc1ccc(O)c(C(C)(C)CC(O)(Cn2ccc(=O)c3ccccc32)C(F)(F)F)c1` (stereo not drawn) [1-[2-Hydroxy-4-(2-hydroxy-5-methylphenyl)-4-methyl-2-trifluoromethylpentyl]-1H-quinolin-4-one] was tested, and the “activity in the GR binding assay” value was “potent activity”. For `CC(C)(CC(O)(Cn1ccc(=O)c2ccccc21)C(F)(F)F)c1cc(CN2CCOCC2)ccc1O` (stereo not drawn) [1-[2-Hydroxy-4-(2-hydroxy-5-morpholin-4-ylmethylphenyl)-4-methyl-2-trifluoromethylpentyl]-1H-quinolin-4-one], the “activity in the GR binding assay” value was “potent activity”.
